US20030109522A1, “Ophthalmologic treatment methods using selective iNOS inhibitors” (priority 2001, published 2003)
pIC50: −log10 of the molar value. Counter-ions that a name gives are not always drawn. Like-named read-outs stand apart in the source and are kept apart here.

Experiments:
[1] = system: nitrite production in human cartilage explants; assay: Human cartilage explant assay (IL-1 induced nitrite production); format: cell-based; details: inhibition of nitrite production, IL-1 stimulated explants
Protocol: Human Cartilage Explant Assay
Bone pieces are rinsed twice with Dulbecco's Phosphate Buffered Saline (GibcoBRL) and once with Dulbecco's Modified Eagles Medium (GibcoBRL) and placed into a petri dish with phenol red free Minimum Essential Medium (MEM) (GibcoBRL). Cartilage was cut into small explants of approximately 15-45 mg in weight and one or two explants per well are placed into either 96 or 48 well culture plates with 200-500 μL of culture media per well. The culture media was either a custom modification of Minimum Essential Medium(Eagle) with Earle's salts (GibcoBRL) prepared without L-Arginine, without L-Glutamine and without phenol red or a custom modification of serumless Neuman and Tytell (GibcoBRL) medium prepared without L-arginine, without insulin, without ascorbic acid, without L-glutamine and without phenol red. Both are supplemented before use with 100 μM L-Arginine (Sigma), 2 mM L-glutamine, 1×HL-1 supplement (BioWhittaker), […] ascorbic acid (Sigma) and 150 pg/ml recombinant human IL-1[…] (RD Systems) to induce nitric oxide synthase. Compounds are then added in 10 μL aliquots and the explants incubated at 37° C. with 5% CO2 for 18-24 hours. The day old supernatant is then discarded and replaced with fresh culture media containing recombinant human IL-1 ? and compound and incubated for another 20-24 hours. […] All samples are done in quadruplicate. Unstimulated controls are cultured in media in the absence of recombinant human IL-1[…]. IC50 values (Table I) are determined from plotting the percent inhibition of nitrite production at six different concentrations of inhibitor.

[2] = target: T1, human endothelial constitutive NOS (hecNOS) (Homo sapiens, UniProt P29474); assay: Citrulline assay for nitric oxide synthase, hecNOS; format: biochemical; details: averages across all experiments and all lots; 30 μM L-arginine
T1 construct: made in house; host or cells: Sf9 insect cells, baculovirus vector

[3] = target: T2, Human inducible NOS (hiNOS) (Homo sapiens, UniProt P35228); assay: Citrulline assay for nitric oxide synthase, hiNOS; format: biochemical; details: averages across all experiments and all lots; 30 μM L-arginine
T2 construct: made in house; host or cells: Sf9 insect cells, baculovirus vector

[4] = target: T3, human neuronal constitutive NOS (hncNOS) (Homo sapiens, UniProt P29475); assay: Citrulline assay for nitric oxide synthase, hncNOS; format: biochemical; details: averages across all experiments and all lots; 30 μM L-arginine
T3 construct: made in house; host or cells: Sf9 insect cells, baculovirus vector

[5] = system: LPS-induced increase in plasma nitrite/nitrate levels; assay: In vivo assay, endotoxin-treated rats; details: administered orally, plasma nitrite/nitrate 5 hours post-treatment
Protocol: Plasma nitrite/nitrate levels can be determined 5 hours post-treatment.

hncNOS = target: T4, hncNOS (Homo sapiens, UniProt P29475); assay: Assay for time dependent inhibition, hncNOS; format: biochemical
T4 construct: made in house; host or cells: Sf9 insect cells, baculovirus vector
Protocol: (§1) Assay for Time Dependent Inhibition
(§2) Aliquots (10 μL) are removed at 0, 10,21 and 60 minutes and immediately added to a citrulline assay enzyme reaction mixture containing L-[2,3-^3H]-arginine and a final L-arginine concentration of 30 μM in a final volume of 100 μL. The reaction is allowed to proceed for 15 minutes at 37° C. and terminated by addition of stop buffer and chromatography with Dowex 50W X-8 cation exchange ion exchange resin as described for the citrulline NOS assay. The % inhibition of NOS activity by an inhibitor was taken as the percent inhibition in activity compared to control enzyme preincubated for the same time in the absence of inhibitor.

hecNOS = target: T5, hecNOS (Homo sapiens, UniProt P29474); assay: Assay for time dependent inhibition, hecNOS; format: biochemical
T5 construct: made in house; host or cells: Sf9 insect cells, baculovirus vector
Protocol: as §1, §2

hiNOS = target: T6, hiNOS (Homo sapiens, UniProt P35228); assay: Assay for time dependent inhibition, hiNOS; format: biochemical
T6 construct: made in house; host or cells: Sf9 insect cells, baculovirus vector
Protocol: as §1, §2

retinal ganglion cells = details: rats with chronic moderately elevated IOP; cited from earlier work
[6] = Rattus norvegicus, po, read-out: ED50

T3 sequence (P29475 whole entry): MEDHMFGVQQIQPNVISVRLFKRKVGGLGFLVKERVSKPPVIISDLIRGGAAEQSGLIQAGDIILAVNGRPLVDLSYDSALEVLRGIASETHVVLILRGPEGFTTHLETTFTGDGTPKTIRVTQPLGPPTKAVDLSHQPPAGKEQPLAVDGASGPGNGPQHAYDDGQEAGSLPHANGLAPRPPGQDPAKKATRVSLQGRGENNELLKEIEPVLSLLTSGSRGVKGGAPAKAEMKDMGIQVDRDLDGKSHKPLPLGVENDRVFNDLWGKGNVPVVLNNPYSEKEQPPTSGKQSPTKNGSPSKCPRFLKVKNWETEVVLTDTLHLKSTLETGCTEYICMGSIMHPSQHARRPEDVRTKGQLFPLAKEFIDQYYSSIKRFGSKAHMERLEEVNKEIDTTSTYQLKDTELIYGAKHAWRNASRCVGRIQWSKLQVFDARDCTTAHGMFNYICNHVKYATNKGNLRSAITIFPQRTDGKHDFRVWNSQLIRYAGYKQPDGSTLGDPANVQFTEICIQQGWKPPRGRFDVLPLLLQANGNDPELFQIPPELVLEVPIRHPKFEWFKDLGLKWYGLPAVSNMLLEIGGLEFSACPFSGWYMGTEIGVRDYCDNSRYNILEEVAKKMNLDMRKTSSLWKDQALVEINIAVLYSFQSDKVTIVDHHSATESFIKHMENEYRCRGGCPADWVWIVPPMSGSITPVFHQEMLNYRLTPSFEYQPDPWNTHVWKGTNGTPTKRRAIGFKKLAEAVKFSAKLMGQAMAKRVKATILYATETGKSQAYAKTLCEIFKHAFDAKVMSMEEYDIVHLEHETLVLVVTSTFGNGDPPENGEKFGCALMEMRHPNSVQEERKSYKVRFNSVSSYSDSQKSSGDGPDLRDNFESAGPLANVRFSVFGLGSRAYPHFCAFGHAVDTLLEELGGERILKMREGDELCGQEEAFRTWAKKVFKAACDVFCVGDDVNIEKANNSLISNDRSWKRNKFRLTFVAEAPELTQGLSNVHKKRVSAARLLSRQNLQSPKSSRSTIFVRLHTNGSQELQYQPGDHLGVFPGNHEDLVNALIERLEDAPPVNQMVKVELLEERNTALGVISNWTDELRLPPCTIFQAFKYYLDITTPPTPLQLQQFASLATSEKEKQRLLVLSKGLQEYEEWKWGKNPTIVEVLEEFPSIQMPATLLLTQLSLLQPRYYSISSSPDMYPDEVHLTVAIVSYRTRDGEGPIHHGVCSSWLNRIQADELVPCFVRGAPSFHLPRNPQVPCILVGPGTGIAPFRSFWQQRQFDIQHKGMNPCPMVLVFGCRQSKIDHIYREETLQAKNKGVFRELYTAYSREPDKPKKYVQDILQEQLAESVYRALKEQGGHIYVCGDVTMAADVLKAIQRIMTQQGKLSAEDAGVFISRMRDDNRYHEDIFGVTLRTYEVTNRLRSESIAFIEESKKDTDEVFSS
T1 sequence (P29474 2-1203): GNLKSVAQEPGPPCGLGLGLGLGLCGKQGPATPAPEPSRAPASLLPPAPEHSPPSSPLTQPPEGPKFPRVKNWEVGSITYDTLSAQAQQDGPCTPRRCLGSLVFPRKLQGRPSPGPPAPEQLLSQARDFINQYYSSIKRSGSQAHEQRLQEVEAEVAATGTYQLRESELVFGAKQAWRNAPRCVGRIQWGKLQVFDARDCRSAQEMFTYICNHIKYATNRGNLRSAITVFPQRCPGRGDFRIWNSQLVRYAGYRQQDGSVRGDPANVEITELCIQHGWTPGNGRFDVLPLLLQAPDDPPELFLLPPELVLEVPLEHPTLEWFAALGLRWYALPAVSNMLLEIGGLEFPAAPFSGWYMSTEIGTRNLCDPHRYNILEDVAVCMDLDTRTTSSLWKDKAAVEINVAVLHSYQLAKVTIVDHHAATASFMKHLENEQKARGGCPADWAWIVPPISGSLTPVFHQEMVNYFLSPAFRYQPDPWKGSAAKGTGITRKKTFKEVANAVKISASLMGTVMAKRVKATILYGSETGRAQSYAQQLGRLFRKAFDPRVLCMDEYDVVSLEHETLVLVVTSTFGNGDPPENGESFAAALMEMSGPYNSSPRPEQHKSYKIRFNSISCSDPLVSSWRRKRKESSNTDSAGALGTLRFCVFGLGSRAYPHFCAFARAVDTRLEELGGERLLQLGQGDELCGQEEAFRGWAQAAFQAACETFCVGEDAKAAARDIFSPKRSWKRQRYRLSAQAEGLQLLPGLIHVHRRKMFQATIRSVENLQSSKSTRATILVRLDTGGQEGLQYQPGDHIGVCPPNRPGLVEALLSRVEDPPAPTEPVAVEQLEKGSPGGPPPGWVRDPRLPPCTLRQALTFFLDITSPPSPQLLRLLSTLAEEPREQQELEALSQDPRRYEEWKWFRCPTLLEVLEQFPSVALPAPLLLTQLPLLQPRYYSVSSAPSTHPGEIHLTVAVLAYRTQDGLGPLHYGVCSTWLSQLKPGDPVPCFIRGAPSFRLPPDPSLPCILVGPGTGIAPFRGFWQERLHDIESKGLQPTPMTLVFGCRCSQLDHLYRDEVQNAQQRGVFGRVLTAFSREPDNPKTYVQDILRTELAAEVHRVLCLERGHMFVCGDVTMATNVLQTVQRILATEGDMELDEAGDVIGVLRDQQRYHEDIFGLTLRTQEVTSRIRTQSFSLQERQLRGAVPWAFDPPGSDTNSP
T2 sequence (P35228 whole entry): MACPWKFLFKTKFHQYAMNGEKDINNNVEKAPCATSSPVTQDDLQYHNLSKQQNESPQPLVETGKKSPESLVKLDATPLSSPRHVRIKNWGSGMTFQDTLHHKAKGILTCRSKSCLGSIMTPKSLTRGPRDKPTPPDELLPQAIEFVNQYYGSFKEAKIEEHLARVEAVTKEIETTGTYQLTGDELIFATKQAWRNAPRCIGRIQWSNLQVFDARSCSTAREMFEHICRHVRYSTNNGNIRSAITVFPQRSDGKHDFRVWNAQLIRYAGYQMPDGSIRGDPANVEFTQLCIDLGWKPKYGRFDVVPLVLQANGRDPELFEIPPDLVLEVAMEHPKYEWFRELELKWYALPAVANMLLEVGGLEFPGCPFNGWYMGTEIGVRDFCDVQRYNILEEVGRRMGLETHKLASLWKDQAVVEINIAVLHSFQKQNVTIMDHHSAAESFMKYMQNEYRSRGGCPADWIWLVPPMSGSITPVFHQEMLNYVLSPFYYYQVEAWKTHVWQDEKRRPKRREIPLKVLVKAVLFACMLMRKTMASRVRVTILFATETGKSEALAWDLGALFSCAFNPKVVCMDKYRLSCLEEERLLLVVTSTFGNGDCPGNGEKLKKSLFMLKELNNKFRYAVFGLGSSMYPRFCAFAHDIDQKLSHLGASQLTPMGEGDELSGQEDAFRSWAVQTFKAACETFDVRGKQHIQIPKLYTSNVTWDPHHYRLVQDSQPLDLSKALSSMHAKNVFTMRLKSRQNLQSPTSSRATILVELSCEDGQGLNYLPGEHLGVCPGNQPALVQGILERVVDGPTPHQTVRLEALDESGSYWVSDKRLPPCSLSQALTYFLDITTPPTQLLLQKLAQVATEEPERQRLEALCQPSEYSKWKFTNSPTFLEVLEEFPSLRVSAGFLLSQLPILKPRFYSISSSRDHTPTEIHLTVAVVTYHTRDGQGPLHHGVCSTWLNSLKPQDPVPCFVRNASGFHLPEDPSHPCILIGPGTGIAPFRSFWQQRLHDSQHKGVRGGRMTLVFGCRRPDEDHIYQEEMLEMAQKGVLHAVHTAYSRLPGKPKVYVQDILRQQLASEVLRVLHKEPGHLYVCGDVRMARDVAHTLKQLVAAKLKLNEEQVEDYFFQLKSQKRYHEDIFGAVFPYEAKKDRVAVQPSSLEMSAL

pIC50 [2]	pIC50 [3]	pIC50 [4]	SMILES	pIC50 ([1]; Homo sapiens)	ED50 [5, 6] [mg/kg]	also measured
–	–	–	CC(=N)NCC(F)=CCC[C@H](N)C(=O)O (mixture of isomers) [Example B, (2S,5E/Z)-2-amino-6-fluoro-7-[(1-iminoethyl)amino]-5-heptenoic Acid, Dihydrochloride]	6.70	–	–
4.28	6.24	4.89	CC(=N)NC/C(F)=C\CCC(C)(N)C(=O)O (racemic) [Example KK, (2R/S,5E)-2-amino-2-methyl-6-fluoro-7-[(1-iminoethyl)amino]-5-heptenoic Acid, Dihydrochloride]	–	0.3	–
–	–	–	CC(=N)NC/C(F)=C\CC[C@H](N)C(=O)O [Example A, (2S,5E)-2-amino-6-fluoro-7-[(1-iminoethyl)amino]-5-heptenoic Acid, Dihydrochloride, Monohydrate]	7.00	< 0.1	ED50 ([5]; Dihydrochloride, Monohydrate): <0.1 mg/kg
< 5.30	> 5.52	> 5.52	N=C1CCCC[C@H](C/C=C\C[C@H](N)C(=O)O)N1 [Example AA, (2S,4Z)-2-amino-6-[(2R)-hexahydro-7-imino-1H-azepin-2-yl]-4-hexenoic Acid]	> 5.52	< 10	inhibition at 0.9 µM (hncNOS; 21 min preincubation): 34%; inhibition at 0.9 µM (hncNOS; 60 min preincubation): 0%; inhibition at 2.2 µM (hecNOS; 2.2 μM, 60 min preincubation): 55%; inhibition at 5.7 µM (hecNOS; 5.7 μM, 21 min preincubation): 58%; inhibition at 2.2 µM (hiNOS; 21 min preincubation): 96%; inhibition at 2.2 µM (hiNOS; 60 min preincubation): 97%
< 4.60	> 5.00	> 5.00	N=C1CCCC[C@H](C/C=C/C[C@H](N)C(=O)O)N1 [Example BB, (2S,4E)-2-amino-6-[(2R)-hexahydro-7-imino-1H-azepin-2-yl]-4-hexenoic Acid]	–	–	–
4.54	5.54	5.00	CC(=N)NC/C=C/CC(C)(N)C(=O)O (stereo not shown) [Example CC, (E)-2-amino-2-methyl-6-[(1-iminoethyl)amino]-4-hexenoic Acid, Dihydrochloride]	6.30	< 3	–
–	–	–	CC(=N)NC/C(F)=C/CC[C@H](N)C(=O)O [Example D, (2S,5Z)-2-amino-6-fluoro-7-[(1-iminoethyl)amino]-5-heptenoic Acid, Trihydrochloride, Dihydrate]	5.60	> 10	–
4.13	5.00	4.51	CC(=N)NC/C=C/C[C@@](C)(N)C(=O)O [Example DD, (R, E)-2-amino-2-methyl-6-[(1-iminoethyl)amino]-4-hexenoic Acid, Dihydrochloride]	5.74	–	–
4.74	5.85	5.24	CC(=N)NC/C=C/C[C@](C)(N)C(=O)O [Example EE, (S, E)-2-amino-2-methyl-6-[(1-iminoethyl)amino]-4-hexenoic Acid, Dihydrochloride]	6.30	0.2	–
4.07	4.80	4.35	CC(=N)NCC#CCC(C)(N)C(=O)O (stereo not shown) [Example FF, 2-amino-2-methyl-6-[(1-iminoethyl)amino]-4-hexynoic Acid, Dihydrochloride]	–	–	–
–	–	–	CC(=NO)NC/C(F)=C\CC[C@H](N)C(=O)O [Example G, (2S,5E)-2-amino-6-fluoro-7-[(1-hydroximinoethyl)amino]-5-heptenoic Acid]	–	< 0.1	melting point: 198 to 200 °C
–	–	–	CC(=N)NC/C(F)=C\CC[C@H](N)C(=O)Nc1nnn[nH]1 [Example H, (2S,5E)-2-amino-6-fluoro-7-[(1-iminoethyl)amino]-N-(1H-tetrazol-5-yl) 5-heptenamide, Dihydrochloride]	–	< 0.3	–
–	–	–	COC[C@](N)(CSCCNC(C)=N)C(=O)O [Example J, 2-[[[2-1(1-Iminoethyl)amino]ethyl]thiolmethyl]-O-methyl-D-serine, Dihydrochloride]	–	–	pIC50 [1]: 5.09
3.45	4.25	3.23	CC(=N)NC/C(F)=C\CC[C@@](C)(N)C(=O)O [Example JJ, (2R,5E)-2-amino-2-methyl-6-fluoro-7-[(1-iminoethyl)amino]-5-heptenoic Acid, Dihydrochloride]	–	–	–
–	–	–	CC(=N)NC/C=C\CC[C@H](N)C(=O)O [Example T, (2S,5Z)-2-amino-7-[(1-iminoethyl)amino]-5-heptenoic Acid, Dihydrochloride]	7.00	–	–
–	–	–	N=C1CCCC[C@H](CCCC[C@@H](N)C(=O)O)N1 [Example V, ([…]R,2S)-[…]-aminohexahydro-7-imino-1H-azepine-2-hexanoic Acid, Trihydrate Hydrochloride]	> 5.00	< 3	–
–	–	–	N=C1CCCC[C@@H](CCCC[C@H](N)C(=O)O)N1 [Example W, ([…]S,2R)-[…]-aminohexahydro-7-imino-1H-azepine-2-hexanoic Acid, Trihydrate Hydrochloride]	< 4.52	> 10	inhibition at 13 µM (hncNOS; 13 μM, 21 min preincubation): 0%; inhibition at 173 µM (hecNOS; 21 min preincubation): 9%; inhibition at 173 µM (hecNOS; 60 min preincubation): 0%; inhibition at 4.2 µM (hiNOS; 21 min preincubation): 34%; inhibition at 4.2 µM (hiNOS; 60 min preincubation): 38%
–	–	–	N=C1CCCC[C@H](CCCC[C@H](N)C(=O)O)N1 [Example X, ([…]S,2S)-[…]-aminohexahydro-7-imino-1H-azepine-2-hexanoic Acid, Trihydrate Hydrochloride]	> 5.00	–	–
–	–	–	N=C1CCCC[C@H](CCCC[C@@H](N)C(=O)O)N1 [Example Y, ([…]R,2S)-[…]-aminohexahydro-7-imino-1H-azepine-2-hexanoic Acid, Trihydrate Hydrochloride]	–	–	pIC50 [1]: > 5.00; inhibition at 5 µM (hncNOS; 5 μM, 21 min preincubation): 0%; inhibition at 33 µM (hecNOS; 21 min preincubation): 11%; inhibition at 33 µM (hecNOS; 60 min preincubation): 11%; inhibition at 2.8 µM (hiNOS; 21 min preincubation): 75%; inhibition at 2.8 µM (hiNOS; 60 min preincubation): 76%
–	–	–	N=C1CCCC[C@H](CCCC[C@H](N)C(=O)O)N1 [Example Z, ([…]S,2S)-[…]-aminohexahydro-7-imino-1H-azepine-2-hexanoic Acid, Trihydrate Hydrochloride]	–	< 5	inhibition at 3 µM (hncNOS; 3 μM, 21 min preincubation): 0%; inhibition at 15 µM (hecNOS; 21 min preincubation): 18%; inhibition at 15 µM (hecNOS; 60 min preincubation): 16%; inhibition at 2.2 µM (hiNOS; 21 min preincubation): 86%; inhibition at 2.2 µM (hiNOS; 60 min preincubation): 85%
–	–	–	N=C(N)NN [aminoguanidine]	–	–	loss of retinal ganglion cells (retinal ganglion cells): blocks loss of retinal ganglion cells

SMILES	pIC50 [2]	pIC50 [3]	pIC50 [4]	pIC50 ([1]; Homo sapiens)	ED50 [5, 6] [mg/kg]	also measured
CC(=N)NC/C(F)=C\CC[C@](C)(N)C(=O)O.Cl.Cl [Example HH, (2S,5E)-2-amino-2-methyl-6-fluoro-7-[(1-iminoethyl)amino]-5-heptenoic Acid, Dihydrochloride]	4.43	6.40	5.12	6.40	0.4	–
CC(=N)NC/C=C\CC[C@](C)(N)C(=O)O.Cl.Cl [Example LL, (2S,5Z)-2-amino-2-methyl-7-[(1-iminoethyl)amino]-5-heptenoic Acid, Dihydrochloride]	4.51	6.15	4.92	6.10	0.3	–
CC(=N)NC/C=C\CC[C@@](C)(N)C(=O)O [Example MM, (2R,5Z)-2-amino-2-methyl-7-[(1-iminoethyl)amino]-5-heptenoic Acid, Dihydrochloride]	2.71	3.92	2.83	–	–	–
